The target of the test is human ACC2 (Homo sapiens (Human), UniProt O00763). The experiment in a line: ACC2 assay, spectrophotometric 384 well assay (NADH-linked kinetic method). Format: biochemical. To be noted: human ACC2 construct lacking the 128 N-terminal amino acids; coupled lactate dehydrogenase/pyruvate kinase reaction, 340 nm, 25° C. Here is the method:
Spectrophotometric 384 Well Assay
Malonyl CoA formation by acetyl CoA carboxylases is stoichometrically linked to the consumption of ATP. ACC2 activity is measured in a NADH-linked kinetic method measuring ADP generated during the ACC reaction using a coupled lactate dehydrogenase/pyruvate kinase reaction.
For biological testing, a human ACC2 construct which lacks the 128 amino acids at the N-terminus for increased solubility (nt 385-6966 in Genbank entry AJ575592) is cloned. The protein is then expressed in insect cells using a baculoviral expression system. Protein purification is performed by anion exchange.
All compounds are dissolved in dimethyl sulfoxide (DMSO) to a concentration of 10 mM.
The enzymatic reaction is then started by addition of a mixture of NADH, acetyl Coenzyme A (both 2000 μM f.c.) and ATP (500 uM f.c.). The decrease of the optical density (slope S) is then determined at 25° C. at a wavelength of 340 nm over 15 minutes in a spectrophotometric reader.
Each assay microtiter plate contains wells with vehicle instead of compound as controls for the non-inhibited enzyme (100% CTL; ‘HIGH’) and wells without acetyl-CoA as controls for non-specific NADH degradation (0% CTL; ‘LOW’).
The slope S is used for calculation of % CTL=(S(compound)−S(‘LOW’))/(S(‘HIGH’)−S(‘LOW’))*100.
For IC50 value determination, the sample slope in the presence of the test compound after subtraction of the low controls (S(compound)−S(‘LOW’)) are used.
An IC50 value is derived from the compound slopes at different dosages after subtraction of the low controls (S(compound)−S(‘LOW’)) by non-linear regression curve fitting (equation y=(A+((B−A)/(1+((C/x)^D))))).

SMILES strings stand for the structures.

Chain of human ACC2 (O00763 129-2458): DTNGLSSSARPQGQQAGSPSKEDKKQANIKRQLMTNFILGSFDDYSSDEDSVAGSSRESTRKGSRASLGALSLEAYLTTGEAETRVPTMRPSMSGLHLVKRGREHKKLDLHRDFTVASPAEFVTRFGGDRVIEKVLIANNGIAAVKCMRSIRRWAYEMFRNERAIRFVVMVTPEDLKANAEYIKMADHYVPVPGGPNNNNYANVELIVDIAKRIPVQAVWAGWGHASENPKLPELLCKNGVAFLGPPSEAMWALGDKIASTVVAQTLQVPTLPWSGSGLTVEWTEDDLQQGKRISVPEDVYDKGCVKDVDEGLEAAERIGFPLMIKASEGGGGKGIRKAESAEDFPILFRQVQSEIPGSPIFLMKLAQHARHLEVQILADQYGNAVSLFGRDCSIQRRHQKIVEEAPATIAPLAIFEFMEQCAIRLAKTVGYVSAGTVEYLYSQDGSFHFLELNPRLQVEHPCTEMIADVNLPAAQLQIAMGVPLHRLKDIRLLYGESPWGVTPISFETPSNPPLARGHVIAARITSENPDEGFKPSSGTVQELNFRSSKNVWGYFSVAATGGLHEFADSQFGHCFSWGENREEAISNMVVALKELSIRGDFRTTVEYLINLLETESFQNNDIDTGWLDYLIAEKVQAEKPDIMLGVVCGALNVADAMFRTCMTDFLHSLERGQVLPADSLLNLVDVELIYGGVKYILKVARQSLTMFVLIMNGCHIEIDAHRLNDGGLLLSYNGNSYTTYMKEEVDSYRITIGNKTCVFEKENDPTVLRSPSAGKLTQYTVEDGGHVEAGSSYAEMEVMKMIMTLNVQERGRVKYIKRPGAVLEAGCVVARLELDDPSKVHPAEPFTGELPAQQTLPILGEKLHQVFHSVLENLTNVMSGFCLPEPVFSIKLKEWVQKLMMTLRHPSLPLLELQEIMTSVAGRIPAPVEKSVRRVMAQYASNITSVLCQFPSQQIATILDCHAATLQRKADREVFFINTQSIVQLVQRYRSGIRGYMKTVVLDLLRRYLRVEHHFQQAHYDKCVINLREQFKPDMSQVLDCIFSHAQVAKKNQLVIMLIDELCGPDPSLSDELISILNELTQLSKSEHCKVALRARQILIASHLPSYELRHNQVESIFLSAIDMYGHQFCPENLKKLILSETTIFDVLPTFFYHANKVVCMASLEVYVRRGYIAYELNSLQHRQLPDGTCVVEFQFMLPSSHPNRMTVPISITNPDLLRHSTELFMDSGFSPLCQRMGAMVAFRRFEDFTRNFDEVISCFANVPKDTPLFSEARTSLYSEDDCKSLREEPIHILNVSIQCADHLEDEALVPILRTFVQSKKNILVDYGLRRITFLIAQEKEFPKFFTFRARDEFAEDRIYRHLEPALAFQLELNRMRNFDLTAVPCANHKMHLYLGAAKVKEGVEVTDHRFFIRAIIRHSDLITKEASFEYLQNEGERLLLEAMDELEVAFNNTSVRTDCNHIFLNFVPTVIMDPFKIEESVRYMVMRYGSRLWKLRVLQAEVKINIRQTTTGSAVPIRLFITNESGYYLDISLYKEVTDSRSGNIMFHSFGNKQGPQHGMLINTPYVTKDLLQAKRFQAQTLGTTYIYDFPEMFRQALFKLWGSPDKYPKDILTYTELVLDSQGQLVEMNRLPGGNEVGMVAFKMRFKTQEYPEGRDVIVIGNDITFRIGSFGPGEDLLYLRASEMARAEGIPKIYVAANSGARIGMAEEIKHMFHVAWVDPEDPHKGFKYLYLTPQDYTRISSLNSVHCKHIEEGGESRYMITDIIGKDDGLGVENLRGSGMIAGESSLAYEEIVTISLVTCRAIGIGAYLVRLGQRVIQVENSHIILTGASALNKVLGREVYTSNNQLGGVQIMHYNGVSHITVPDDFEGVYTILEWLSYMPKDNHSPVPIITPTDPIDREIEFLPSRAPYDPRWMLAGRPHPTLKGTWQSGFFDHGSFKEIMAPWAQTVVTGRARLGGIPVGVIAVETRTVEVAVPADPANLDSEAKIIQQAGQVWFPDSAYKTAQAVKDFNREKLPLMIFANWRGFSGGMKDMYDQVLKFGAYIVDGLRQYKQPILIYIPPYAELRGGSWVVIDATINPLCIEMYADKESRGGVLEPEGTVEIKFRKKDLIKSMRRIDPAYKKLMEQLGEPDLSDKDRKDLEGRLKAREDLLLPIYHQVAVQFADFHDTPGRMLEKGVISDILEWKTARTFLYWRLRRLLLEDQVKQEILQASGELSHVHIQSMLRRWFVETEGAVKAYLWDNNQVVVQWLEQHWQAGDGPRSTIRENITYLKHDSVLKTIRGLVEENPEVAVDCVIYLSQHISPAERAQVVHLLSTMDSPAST

For `CC(=O)N[C@@H](C)c1ccc(O[C@@H]2CCN(c3cccc(N(C)CC(C)O)n3)C2)cc1` (stereo partly shown) [Example 10.35], the IC50 (commonly the concentration needed to halve the response being measured) was 853 nM. In turn, `CC(=O)N[C@@H](C)c1ccc(O[C@@H]2CCN(c3ccnc(OC(C)C)c3Cl)C2)cc1` [Example 9.80] had a half-inhibitory concentration (IC50) of 138 nM. Compared with the last compound, the IC50 is about 6.2-fold lower.

`CC(C)Oc1cc(N2CCC(Oc3ccc([C@H](C)NC(=O)C(C)C#N)cc3)C2)ccn1` (stereo partly shown) [Example 2.23] gave an IC50 of 970 nM.

`CCOc1cc(N2CC[C@@H](Oc3ccc([C@H](C)NC(=O)C4CC4)cc3)C2)ccn1` [Example 9.38] displayed an IC50 of 510 nM. This IC50 is about 1.9-fold lower than that of the compound before. `CC(=O)N[C@@H](C)c1ccc(O[C@@H]2CCN(c3ccnc(NC4CCCC4)c3F)C2)cc1` [Example 1.113] displayed an IC50 of 163 nM. `COc1cnc(N2CC[C@@H](Oc3ccc([C@H](C)NC(C)=O)cc3)C2)c(Cl)c1` [Example 8.10]: the IC50 came out at 693 nM. Turning to `Cc1ncoc1C(=O)N[C@@H](C)c1ccc(OC2CCN(c3cccc(C(F)(F)F)n3)C2)cc1` (stereo partly shown) [Example 2.39], the IC50 is 610 nM. In turn, `CC(=O)N[C@@H](C)c1ccc(OC2CCN(c3ccc(OC4CCC4)cn3)C2)cc1` (stereo partly shown) [Example 1.26] returned an IC50 of 114 nM. Compared with the last compound, the IC50 is about 5.4-fold lower. Under `CC(=O)N[C@@H](C)c1ccc(O[C@@H]2CCN(c3ccnc(OCc4cccc(F)c4)c3)C2)cc1` [Example 9.9] stands 140 nM. Under `CC(=O)N[C@@H](C)c1ccc(OC2CCN(c3ccc(OCC4CC4(F)F)nc3)C2)cc1` (stereo partly shown) [Example 1.42] stands 219 nM; under `CC(=O)N[C@@H](C)c1ccc(O[C@@H]2CCN(c3cccc(N4CCC5(CC5)C4)n3)C2)cc1` [Example 10.32], 245 nM. In turn, `C[C@H](NC(=O)C1CC1)c1ccc(OC2CCN(c3ccc(OCC4CC4(F)F)cn3)C2)cc1` (stereo partly shown) [Example 2.56] came in with an IC50 of 175 nM. Under `CC(=O)N[C@@H](C)c1ccc(OC2CCN(c3ccc(OC4CCC4)nc3)C2)cc1` (stereo partly shown) [Example 1.21] stands 335 nM; under `C[C@H](NC(=O)C1(C(F)(F)F)CC1)c1ccc(OC2CCN(c3cccc(C(F)(F)F)n3)C2)cc1` (stereo partly shown) [Example 2.37], 247 nM. With `CNC(=O)N[C@@H](C)c1ccc(OC2CCN(c3ccc(OCC4CC4(F)F)cn3)C2)cc1` (stereo partly shown) [Example 3.20] the figure was 92 nM; with `C[C@H](NC(=O)C1CC1)c1ccc(O[C@@H]2CCN(c3ccnc(OCC4CC4)c3)C2)cc1` [Example 9.39], 149 nM. With `Cc1[nH]ncc1C(=O)N[C@@H](C)c1ccc(OC2CCN(c3ccnc(OCC4CC4)c3)C2)cc1` (stereo partly shown) [Example 2.84] the figure was 169 nM; with `CC(=O)N[C@@H](C)c1ccc(O[C@@H]2CCN(c3ccnc(N4CCC(C)(O)C4)c3Cl)C2)cc1` (stereo partly shown) [Example 10.54], 114 nM; with `C[C@H](NC(=O)N(C)C)c1ccc(OC2CCN(c3ccnc(OCC4CC4(F)F)c3F)C2)cc1` (stereo partly shown) [Example 5.4], 49 nM. `CC(=O)N[C@@H](C)c1ccc(O[C@@H]2CCN(c3cccc(N(C)C)n3)C2)cc1` [Example 10.1, N—((S)-1-(4-((R)-1-(6-(Dimethylamino)pyridin-2-yl)pyrrolidin-3-yloxy)phenyl)ethyl)acetamide]: the midpoint of inhibition, the IC50, lay at 145 nM. With `CC(=O)N[C@@H](C)c1ccc(O[C@@H]2CCN(c3ccnc(N4CCC(F)(F)C4)c3C)C2)cc1` [Example 1.124] the figure was 76 nM; with `CNc1cccc(N2CC[C@@H](Oc3ccc([C@H](C)NC(C)=O)cc3)C2)n1` [Example 10.21], 963 nM; with `CC(=O)N[C@@H](C)c1ccc(O[C@@H]2CCN(c3ccnc(OCC4CC4(F)F)c3C)C2)cc1` (stereo partly shown) [Example 9.60], 40 nM. With `Cc1cc(CC(=O)N[C@@H](C)c2ccc(OC3CCN(c4ccnc(OC(C)C)c4)C3)cc2)on1` (stereo partly shown) [Example 2.31] the figure was 964 nM.

As to `COc1c(N2CC[C@@H](Oc3ccc([C@H](C)NC(C)=O)cc3)C2)ccnc1OCC1CC1(F)F` (stereo partly shown) [Example 14.2], the IC50 was determined as 45 nM. This IC50 is about 21-fold lower than that of the compound before. For `CC(=O)N[C@@H](C)c1ccc(O[C@@H]2CCN(c3cccc(N4CCCC4)n3)C2)cc1` [Example 10.3], 153 nM corresponded to half-maximal inhibition (IC50). Under `C[C@H](NC(=O)N(C)C)c1ccc(OC2CCN(c3ccnc(OCC(F)F)c3F)C2)cc1` (stereo partly shown) [Example 5.9] stands 73 nM; under `CC(C)Oc1cc(N2CCC(Oc3ccc([C@H](C)NC(=O)c4cnn(C)c4)cc3)C2)ccn1` (stereo partly shown) [Example 2.4], 145 nM. The compound `CC(=O)N[C@@H](C)c1ccc(O[C@@H]2CCN(c3ccnc(NCC4CC4)c3F)C2)cc1` [Example 1.114] gave an IC50 of 43 nM.

Compound `COC(=O)N[C@@H](C)c1ccc(O[C@@H]2CCN(c3ccc(OC[C@H]4CC4(F)F)cn3)C2)cc1` [Example 4.1, Methyl (S)-1-(4-((R)-1-(5-(((R)-2,2-difluorocyclopropyl)methoxy)pyridin-2-yl)pyrrolidin-3-yloxy)phenyl)ethylcarbamate] had an IC50 of 39 nM. Under `CC(C)Oc1cc(N2CCC(Oc3ccc([C@H](C)NC(=O)c4ccco4)cc3)C2)ccn1` (stereo partly shown) [Example 2.18] stands 862 nM; under `CC(=O)NC1CCN(C(=O)N[C@@H](C)c2ccc(OC3CCN(c4ccc(OCC5CC5(F)F)cn4)C3)cc2)C1` (stereo partly shown) [Example 3.19], 1440 nM. As for `CC(=O)N[C@@H](C)c1ccc(O[C@@H]2CCN(c3ccnc(OCC(C)(F)F)c3F)C2)cc1` [Example 9.85], the IC50 was 58 nM. Against the preceding compound, the IC50 is about 25-fold lower. With `CC(C)Oc1cc(N2CCC(Oc3ccc([C@H](C)NC(=O)c4ccoc4)cc3)C2)ccn1` (stereo partly shown) [Example 2.20] the figure was 110 nM; with `CC(=O)N[C@@H](C)c1ccc(OC2CCN(c3ccc(OCCC(F)(F)F)cn3)C2)cc1` (stereo partly shown) [Example 1.29], 130 nM. Compound `CC(=O)N[C@@H](C)c1ccc(OC2CCN(c3ccc(OCCC(F)F)cn3)C2)cc1` (stereo partly shown) [Example 1.93] had an IC50 of 107 nM. As for `CC(=O)N[C@@H](C)c1ccc(OC2CCN(c3ccc(OC4CC4)cn3)C2)cc1` (stereo partly shown) [Example 1.66], half-maximal inhibition (IC50) required 384 nM. With `CC(C)Oc1cc(N2CCC(Oc3ccc([C@H](C)NC(=O)CC(F)(F)F)cc3)C2)ccn1` (stereo partly shown) [Example 2.11] the figure was 1000 nM. With `C[C@H](NC(=O)c1cnn(C)c1N)c1ccc(OC2CCN(c3ccnc(OCC4CC4)c3)C2)cc1` (stereo partly shown) [Example 2.82] the figure was 300 nM; with `C[C@H](NC(=O)N1CCCC1)c1ccc(OC2CCN(c3ccc(OCC4CC4(F)F)cn3)C2)cc1` (stereo partly shown) [Example 3.18], 423 nM; with `CC(=O)N[C@@H](C)c1ccc(O[C@@H]2CCN(c3cccc(N4CCCC4C)n3)C2)cc1` (stereo partly shown) [Example 10.33], 133 nM. Compound `C[C@H](NC(=O)C1CC1)c1ccc(OC2CCN(c3ccc(OC[C@H]4CC4(F)F)cn3)C2)cc1` (stereo partly shown) [Example 2.94] had an IC50 of 84 nM. In turn, `C[C@H](NC(=O)c1ccnc(F)c1)c1ccc(OC2CCN(c3cccc(C(F)(F)F)n3)C2)cc1` (stereo partly shown) [Example 2.44] registered an IC50 of 991 nM. `CC(=O)N[C@@H](C)c1ccc(O[C@@H]2CCN(c3nc(N(C)C)ccc3F)C2)cc1` [Example 10.18] registered an IC50 of 855 nM. Under `CCC(=O)Nc1nc(C)c(C(=O)N[C@@H](C)c2ccc(O[C@@H]3CCN(c4ccc(OC[C@H]5CC5(F)F)cn4)C3)cc2)s1` [Example 1.144] stands 93 nM; under `C[C@H](NC(=O)c1ccnc(C#N)c1)c1ccc(OC2CCN(c3cccc(C(F)(F)F)n3)C2)cc1` (stereo partly shown) [Example 2.62], 175 nM.
